Publication PMC8577999 (Slas Discovery, 2021)

Tests used:
Format in all cases: cell-based, SARS-CoV-2
[1] = tested on: SARS2-S SA variant (B.1.351); assay: microbe, parasite or virus in culture; conditions: Severe acute respiratory syndrome coronavirus 2, read-out: SA IC50
SARS2-S N501Y-D614G = conditions: read-out: N501Y-D614G IC50
[2] = tested on: SARS2-S UK variant (B.1.1.7); assay: microbe, parasite or virus in culture; conditions: Severe acute respiratory syndrome coronavirus 2, read-out: UK IC50
SARS2-S D614G = conditions: read-out: D614G IC50

CCCC[C@@H](C=O)NC(=O)[C@H](CC(C)C)NC(=O)OCc1ccccc1 [SR-914, calpeptin]
IC50 [1]: 6.58 nM
IC50 (SARS2-S N501Y-D614G): 8.98 nM
IC50 [2]: 34.7 nM
IC50 (SARS2-S D614G): 11.5 nM
